Assay: gradient 5% acetonitrile 3 min, to 50% in 2 min, to 85% in 15 min, held 3 min, 100 µL/min
Details: column: Zorbax Extend-C18 2.1 x 50 mm; eluents: water / acetonitrile, 0.1% formic acid
In short: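 Using water and acetonitrile that each contained 0.1% formic acid, mixtures of ~100 pure standards were separated at 100 μL/min on a Zorbax Extend-C18 column (2.1 × 50 mm, 1.8 μm). The HPLC fed a quadrupole time-of-flight mass spectrometer working in positive and negative ionization mode, with dead and dwell volumes of 40 μL and 900 μL. Data were acquired over 3 months. Retention time was read from computationally picked adduct peaks after manual inspection of each.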

RP-LC retention time [s] | SMILES
674 | CC(NC(=O)c1ccco1)c1nc(-c2ccc3c(c2)ncn3C2CCCC2)no1 (stereo not drawn)
1090 | Cc1ccccc1CNC(=O)C1(C)CCN(S(=O)(=O)c2cccc(Cl)c2C)CC1
634 | CN(C)c1ccc(CNC(=O)[C@@]23CCCC[C@H]2N(CCc2ccccc2)C(=O)CC3)cc1
627 | Cc1ccc(C(=O)N2CCCn3cc(-c4ccccc4F)nc32)cn1
824 | CCCNC(=O)CN1c2ccc(F)cc2-c2ccccc2S1(=O)=O
690 | CCCNC(=O)C1CCN(c2ccc(SCC(=O)Nc3cc(Cl)ccc3C)nn2)CC1
645 | CCC(C)NC(=O)c1cc(=O)[nH]c2ccccc12 (stereo not drawn)
943 | O=C(NCc1ccccc1F)C1CCCN(c2nc3ccsc3c(=O)n2Cc2ccccc2)C1 (stereo not drawn)
812 | CCCN1C(=O)C2CCC(=O)N2c2ccc(C(=O)NC(C)(C)CC)cc21 (stereo not drawn)
683 | O=C(CSCc1ccccc1)NCCNC(=O)c1ccc(NC(=O)C2CC2)cc1
844 | CCCN(CC1CCOC1)C(=O)Nc1cc(F)c(F)c(F)c1 (stereo not drawn)
923 | O=c1c(NCc2ccc(Cl)cc2)nccn1-c1ccc2c(c1)OCO2
754 | CCCCn1cc(S(=O)(=O)Nc2cc(C)ccc2F)c2cccnc21
948 | CCCCC(=O)Nc1ccc(SCc2nnc(-c3ccc4c(c3)OCO4)o2)cc1
911 | CCc1nc2c(=O)n(CC(=O)N3CCN(c4cc(C)ccc4C)CC3)nc(C)c2s1
713 | Cc1noc(C)c1CCNC(=O)CCCn1c2ccccc2c2cnn(C)c(=O)c21
950 | O=C(c1ccc(-c2cccs2)nc1)N1CCN(c2ccc(F)cc2)CC1
712 | O=C1CCCCC(C(=O)Nc2cccc(Cl)c2)N1 (stereo not drawn)
685 | CCc1ccc(-c2nc(-c3ccc4c(c3)ncn4CCN3CCOCC3)no2)cc1
654 | O=C(NCc1ccc(Cl)cc1)NCC1(CO)CC1
634 | CCN1CCC2(CC1)OC(=O)C(C)=C2C(=O)N1CCN(c2cccc(OC)c2)CC1
600 | O=C([C@@H]1C[C@H](Oc2cccnc2)CN1C(=O)CC1CCCC1)N1CCCC1

RP-LC retention time [s] | SMILES
563 | Cc1ccc2c(C(=O)O)cc(NC(=O)C(C)C)cc2n1
710 | COc1ccc(C)cc1NC(=O)N1CC(c2nc(C(C)C)nn2C)C1
883 | Cc1sc(NC(=O)c2cccs2)nc1-c1ccc2c(c1)NC(=O)C(C)O2 (stereo not drawn)
727 | CCc1ccc(-n2cc(C(=O)O)nn2)cc1
723 | COc1ccc(-c2nnc3n2N=C(c2ccc([N+](=O)[O-])cc2)CS3)cc1OC
876 | Cc1cccc(CNC(=O)C2(C)Oc3cccnc3N(C)C2=O)c1 (stereo not drawn)
627 | Cn1ccc2cc(S(=O)(=O)N3CCCC(C(=O)NCCCN4CCOCC4)C3)ccc21 (stereo not drawn)
696 | CCOC(=O)c1c(NC(=O)CSc2n[nH]c(N)n2)sc(C)c1C
765 | CN1C(=O)c2cccnc2Sc2cc(C(=O)NCc3ccc(F)cc3)ccc21
965 | CCc1ccc(NC(=O)N2CCc3c(c(-c4nnc(-c5ccc(F)cc5)o4)nn3C)C2)cc1
812 | Cc1nn(-c2ccccc2)c(C)c1S(=O)(=O)N1CCC(C(=O)NCCc2ccccc2)CC1
660 | Cc1cccc(NC(=O)N2CCc3nc(-c4ccc(Cl)cc4)ncc3C2)c1C
903 | CCN(CC)S(=O)(=O)c1cc(-c2nnc(-c3ccccc3OC)o2)ccc1OC
761 | Cc1ccc(N2CCC(NC(=O)NC(C)(C)C)C2=O)cc1 (stereo not drawn)
617 | CCn1c(=O)c2c(C(=O)N3CCN(c4ccccn4)CC3)cc(=O)n(CC)c2n(C)c1=O
819 | Cc1nc2cc(N3CC(C(=O)Nc4ccc(C)c(Cl)c4)CC3=O)ccc2o1 (stereo not drawn)
562 | Cc1cccc(N2C(=O)c3cccnc3C2CC(=O)N2CCN(c3ccccn3)CC2)c1 (stereo not drawn)
951 | Cc1ccc(S(=O)(=O)Cc2nc(-c3ccc4c(c3)OCO4)no2)cc1
1120 | Cc1ccc(NC(=O)Cn2c(C)nc3c(sc4nc(-c5ccccc5)ccc43)c2=O)cc1C
607 | CC(C)C(=O)N1CCc2cc(-c3ccc(C(=O)NCCCN4CCN(C)CC4)cc3)ccc21
969 | COc1ccc(NC(=O)C2CCCN(c3nccnc3Sc3ccccc3)C2)cc1OC (stereo not drawn)
567 | O=C(NC1CC1)[C@@H]1C[C@H](Oc2cccnc2)CN1C(=O)C1CC=CC1

RP-LC retention time [s] | SMILES
668 | CCOc1cccc(-c2noc(Cn3ccnc3CC)n2)c1
914 | CC1=C2C3OC(=O)C(C)C3CCC2(C)C=C(Cl)C1=O (stereo not drawn)
950 | CCN1C(=O)c2cccnc2Sc2cc(NC(=O)CCc3ccccc3)ccc21
681 | CC(=O)c1ccc(NC(=O)N2C[C@@H]3C[C@H]2C[C@@H]3NC(=O)c2ccccc2)cc1
1000 | COc1ccc(N2CC(c3noc(-c4ccc(C)cc4C)n3)CC2=O)cc1 (stereo not drawn)
823 | Cc1ccc(C(=O)NC2CCN(c3ccccc3)C2=O)cc1F (stereo not drawn)
851 | Cc1cc(NC(=O)Cn2cnc3nc4c(cc3c2=O)CCCC4)ccc1Br
634 | COc1ccc2[nH]c3c(c2c1)CCNC31CCN(S(=O)(=O)c2cccnc2)CC1
825 | O=C(Nc1ccccc1)C1CC(=O)N(CCc2c[nH]c3ccc(Cl)cc23)C1 (stereo not drawn)
1000 | O=C(O)Cn1nnc(-c2cc(N3CCC(Oc4cc(F)ccc4Br)CC3)no2)n1
1030 | CC(C)CCN1C(=O)CN(S(=O)(=O)c2ccccc2)CC1(C)C(=O)NCc1ccc(F)cc1 (stereo not drawn)
715 | O=C(c1ccc2c(c1)OCO2)N1CCCN(C(=O)C2CC2)c2ccccc21
544 | COc1cc(CN(C)C2CCc3nnc(C4CCOCC4)n3CC2)cc(OC)c1 (stereo not drawn)
1080 | COCc1nnc(NC(=O)c2ccccc2OCc2nc(-c3ccccc3)no2)s1
848 | CCOc1ccccc1NC(=O)CN1CCN(Cc2ccc(C)cc2)C(=O)C1=O
675 | CCOc1ccc(NC(=O)Cn2cnc3nc(N4CCCC(C(=O)NC5CC5)C4)sc3c2=O)cc1 (stereo not drawn)
623 | O=C(c1c(F)cccc1F)N1CCN=C1N1CCCCC1
1280 | CCCCc1ccc(N2C(=O)C3N=NN(Cc4nc(-c5ccc(Cl)cc5)no4)C3C2=O)cc1 (stereo not drawn)
603 | CSc1ccc(CN2CCN(c3cnn4c(C5CC5)nnc4c3)CC2)cc1
1160 | Cc1noc(C)c1-c1ccc(S(=O)(=O)N2CCN(c3cccc(Cl)c3)CC2)cc1
716 | Cn1cc(S(=O)(=O)N2CCC(C(=O)Nc3ccc4c(c3)OCO4)CC2)cc1C(=O)N1CCCC1
743 | O=C(Nc1cnc(N2CCOCC2)nc1)c1ccc(F)cc1Cl

RP-LC retention time [s] | SMILES
720 | Cc1cc(N2CCN(S(=O)(=O)c3ccc(F)c(F)c3)CC2)nc(N2CCCC2)n1
601 | Cc1cc(C)cc(NC(=O)C(=O)NCC(c2ccc3c(c2)CCCN3C)N2CCOCC2)c1 (stereo not drawn)
997 | CNC(=O)c1cnc(-c2ccc(Cl)cc2)n(CC(=O)N2CCc3ccccc32)c1=O
826 | COc1ccc(OC)c(NC(=O)N2C[C@@H](F)C[C@H]2C(=O)N2CCc3ccccc3C2)c1
918 | COc1ccc(OC)c(NC(=O)N(C)CCc2noc(-c3ccccc3)n2)c1
636 | COCC1CN(S(=O)(=O)c2ccc(F)c(C)c2)CC12CCNCC2 (stereo not drawn)
777 | Cc1cc(C)c(NC(=O)CN2C(=O)NC3(CCCCC3)C2=O)c(C)c1
813 | CC(=O)c1ccc(NC(=O)Cn2c(C)cc(-c3nnc(C4CCC4)o3)c2C)cc1
1180 | CC(C)Oc1ccc(-c2noc(CN3N=NC4C(=O)N(c5ccc(C(C)C)cc5)C(=O)C43)n2)cc1 (stereo not drawn)
1250 | CN(C)C(=O)OC1=C(c2ccccc2)Sc2ccccc2-n2cccc21
772 | COc1ccc(-n2nc(SCC(=O)Nc3ccc(F)c(F)c3)ccc2=O)cc1
618 | Cn1cnnc1C1CCCCN1C(=O)c1ccc2c(c1)OCO2 (stereo not drawn)
929 | COc1ccccc1N1CCN(c2cc(SCC(=O)NCc3ccc(SC)cc3)ncn2)CC1
820 | Cc1nc(CC(=O)NC(C)c2ccccc2)sc1C(=O)NCc1ccccc1 (stereo not drawn)
1090 | O=C(Nc1ccccc1C(=O)NCCC1=CCCCC1)C1=CSCCO1
815 | Cc1cc(C)n2c(Nc3c(C)cccc3C)c(-c3ccc(Cl)cc3)nc2n1
1100 | Cc1ccc(-c2nnc(Cc3nc(-c4ccccc4C)no3)o2)cc1
942 | CCc1nc(OCC(=O)NCc2cccc(F)c2)c2c(C)c(C)oc2n1
1240 | Cc1ccc(CNC(=O)Nc2ccc(-c3nc(-c4cc(C)ccc4C)co3)cc2)cc1
800 | CN(Cc1ccccc1)C(=O)C(=O)c1c[nH]c2ccccc12

SMILES | RP-LC retention time [s]
CCCS(=O)(=O)N1[C@H]2CC[C@@H]1c1cnc(-c3ccc(F)cc3)nc1C2 | 1010
COc1ccc(CNCCc2c(C)[nH]c3ccc(F)cc23)cc1OC | 571

From the METLIN SMRT retention time set (Domingo-Almenara et al. 2019)
